Assay results published in the supplement of paper PMC11061612.

Tests used:
Assay in all cases: Bliss excess, mean over the matrix (fraction); higher = more synergy
[1] = test system: GDM-1 (Acute Myeloid Leukemia)
Procedure, shortened: (§1)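 Cell lines grown in DMEM/F12 or RPMI with 10% FBS were plated in 1536-well plates and held 24 hours at 37°C, 5% CO2 before 72 hours of exposure to two-drug dose matrices, with DMSO typically at 0.2%. CellTiter-Glo 2.0 luminescence gave viability, which was converted to inhibition. Vehicle wells were set to 0 and blank wells to 1. Combination Emax is the second-highest inhibition in the matrix, and Bliss excess is the observed combination effect minus the expected EA + EB − EA·EB, where EA and EB are the single-agent effects.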

H4 (Low Grade Glioma) = test system: H4 (Low Grade Glioma)
Procedure, shortened: as §1

[2] = test system: NOMO-1 (Acute Myeloid Leukemia)
Procedure, shortened: as §1

[3] = test system: SKN-3 (Head and Neck Carcinoma)
Procedure, shortened: as §1

[4] = test system: HLE (Hepatocellular Carcinoma)
Procedure, shortened: as §1

[5] = test system: EFM-192A (Breast Carcinoma)
Procedure, shortened: as §1

[6] = test system: HCC-827 (Lung Adenocarcinoma)
Procedure, shortened: as §1

MSTO-211H (Mesothelioma) = test system: MSTO-211H (Mesothelioma)
Procedure, shortened: as §1

[7] = test system: RCC10RGB (Kidney Carcinoma)
Procedure, shortened: as §1

D-392MG (Glioblastoma) = test system: D-392MG (Glioblastoma)
Procedure, shortened: as §1

[8] = test system: TYK-nu (Ovarian Carcinoma)
Procedure, shortened: as §1

[9] = test system: SNG-M (Endometrial Carcinoma)
Procedure, shortened: as §1

A172 (Glioblastoma) = test system: A172 (Glioblastoma)
Procedure, shortened: as §1

[10] = test system: MES-SA (Other Solid Carcinomas)
Procedure, shortened: as §1

[11] = test system: HCC1143 (Breast Carcinoma)
Procedure, shortened: as §1

[12] = test system: SK-LMS-1 (Other Solid Carcinomas)
Procedure, shortened: as §1

[13] = test system: 647-V (Bladder Carcinoma)
Procedure, shortened: as §1

MCF7 (Breast Carcinoma) = test system: MCF7 (Breast Carcinoma)
Procedure, shortened: as §1

[14] = test system: SNU-61 (Colorectal Carcinoma)
Procedure, shortened: as §1

[15] = test system: YT (Other Blood Carcinomas)
Procedure, shortened: as §1

Structure (SMILES)	Bliss excess [1]	Bliss excess (H4 (Low Grade Glioma))	Bliss excess [2]	Bliss excess [3]	Bliss excess [4]	Bliss excess [5]	Bliss excess [6]	Bliss excess (MSTO-211H (Mesothelioma))	Bliss excess [7]	Bliss excess (D-392MG (Glioblastoma))	Bliss excess [8]	Bliss excess [9]	Bliss excess (A172 (Glioblastoma))	Bliss excess [10]	Bliss excess [11]	Bliss excess [12]	Bliss excess [13]	Bliss excess (MCF7 (Breast Carcinoma))	Bliss excess [14]	Bliss excess [15]
Cc1c2c(nn1C)CSCc1cc(n(C)n1)CSc1cc(c3ccccc3c1)OCCCc1c(C(=O)O)n(C)c3c-2c(Cl)ccc13 [AZD5991] + C[C@@H](Nc1cc(F)cc(F)c1)c1cc(C(=O)N(C)C)cc2c(=O)cc(N3CCOCC3)oc12 [AZD8186] (first compound max 1 µM, 7x7, partner max 3 µM)	0.0355	-0.0054	0.0361	-0.0606	0.0254	-0.0207	0.0064	-0.0019	-0.0349	0.0111	-0.0118	-0.0242	-0.004	-0.0381	0.0441	-0.0056	0.0458	-0.01	-0.0277	0.0223
Cc1c2c(nn1C)CSCc1cc(n(C)n1)CSc1cc(c3ccccc3c1)OCCCc1c(C(=O)O)n(C)c3c-2c(Cl)ccc13 [AZD5991] + Cc1cc2ncnn2cc1Nc1ncc2c(n1)n(C1CCOCC1)c(=O)n2C [AZD7648] (first compound max 1 µM, 7x7, partner max 10 µM)	-0.0295	0.0222	0.0486	-0.032	-0.0253	-0.0394	-0.0476	-0.025	0.0033	-0.0664	-0.0539	0.0071	-0.0426	0.0111	0.0124	-0.0392	0.0281	0.0011	-0.0446	0.0305
Cc1c2c(nn1C)CSCc1cc(n(C)n1)CSc1cc(c3ccccc3c1)OCCCc1c(C(=O)O)n(C)c3c-2c(Cl)ccc13 [AZD5991] + Cn1cnc2c(F)c(Nc3ccc(Br)cc3Cl)c(C(=O)NOCCO)cc21 [Selumetinib] (first compound max 1 µM, 7x7, partner max 3 µM)	0.0387	-0.0265	0.135	0.0324	-0.0459	-0.0116	-0.0091	-0.006	0.0528	0.0339	-0.0052	-0.0258	0.0179	-0.0247	0.0552	-0.0257	0.0749	-0.0435	-0.0079	-0.0051
C[C@@H]1COCCN1c1cc(C2([S@](C)(=N)=O)CC2)nc(-c2ccnc3[nH]ccc23)n1 [AZD6738] + O=C(c1cc(Cc2n[nH]c(=O)c3ccccc23)ccc1F)N1CCN(C(=O)C2CC2)CC1 [Olaparib] (first compound max 10 µM, 7x7, partner max 10 µM)	-0.0135	0.0238	-0.0031	-0.0217	-0.0562	0.0387	-0.0086	-0.0082	0.0483	-0.0067	-0.0674	0.0294	-0.0398	-0.0519	-0.0284	0.0027	0.0753	0.0135	-0.0019	-0.0376
Cc1cc2ncnn2cc1Nc1ncc2c(n1)n(C1CCOCC1)c(=O)n2C [AZD7648] + C=CCn1c(=O)c2cnc(Nc3ccc(N4CCN(C)CC4)cc3)nc2n1-c1cccc(C(C)(C)O)n1 [AZD1775] (first compound max 10 µM, partner max 1 µM)	-0.0239	-0.082	0.0204	-0.0033	-0.0273	0.0338	-0.0044	0.067	0.0016	0.0035	-0.0394	0.0527	0.0587	-0.0182	-0.0183	-0.0661	0.0132	0.0442	-0.049	-0.124
Cc1cc2ncnn2cc1Nc1ncc2c(n1)n(C1CCOCC1)c(=O)n2C [AZD7648] + CCN(CCO)CCCOc1ccc2c(Nc3cc(CC(=O)Nc4cccc(F)c4)[nH]n3)ncnc2c1 [AZD2811] (first compound max 10 µM, 7x7, partner max 1 µM)	-0.036	0.006	0.131	-0.0037	0.0271	-0.0175	-0.0026	0.0509	0.0069	-0.0108	0.0625	0.0507	0.0537	0.0834	-0.003	-0.0162	0.0618	-0.0135	-0.0383	0.0407
Cc1cc2ncnn2cc1Nc1ncc2c(n1)n(C1CCOCC1)c(=O)n2C [AZD7648] + CN(C)CCCOc1ccc(-c2ccc3ncc4c(c3c2)n(C2CCOCC2)c(=O)n4C)cn1 [AZD0156] (first compound max 10 µM, 7x7, partner max 1 µM)	-0.0215	-0.0253	0.0371	-0.0064	-0.0274	-0.0119	0.0386	0.0388	-0.0735	-0.0405	-0.0465	0.0073	-0.034	0.0228	0.0031	0.0028	0.0401	-0.0048	-0.0151	-0.0389
Cc1cc2ncnn2cc1Nc1ncc2c(n1)n(C1CCOCC1)c(=O)n2C [AZD7648] + C[C@@H]1COCCN1C2=NC(=NC(=C2)C3(CC3)[S@](=N)(=O)C)C4=C5C=CNC5=NC=C4 [AZD6738] (first compound max 10 µM, 7x7, partner max 10 µM)	-0.022	-0.0116	0.0248	-0.0279	0.0049	0.0421	0.0048	0.0403	0.0076	0.0217	-0.034	-0.0217	-0.0552	0.0541	-0.0328	0.0215	0.0987	-0.0192	0.0199	-0.0476
Cc1cc2ncnn2cc1Nc1ncc2c(n1)n(C1CCOCC1)c(=O)n2C [AZD7648] + O=C(c1cc(Cc2n[nH]c(=O)c3ccccc23)ccc1F)N1CCN(C(=O)C2CC2)CC1 [Olaparib] (first compound max 10 µM, 7x7, partner max 10 µM)	-0.011	0.0404	-0.0359	-0.0199	-0.036	-0.0533	-0.028	-0.0143	-0.0619	-0.0456	-0.0819	-0.0471	-0.007	0.06	-0.0401	-0.0295	-0.0098	-0.0625	-0.0443	-0.0004
NC1(C(=O)N[C@@H](CCO)c2ccc(Cl)cc2)CCN(c2ncnc3[nH]ccc23)CC1 [Capivasertib] + CC(=O)c1c(C)c2cnc(Nc3ccc(N4CCNCC4)cn3)nc2n(C2CCCC2)c1=O [Palbociclib] (first compound max 10 µM, 7x7, partner max 10 µM)	0.0262	0.0014	0.0378	-0.0502	-0.002	-0.0334	-0.034	-0.0547	-0.0368	0.0094	-0.0208	-0.0601	-0.0183	-0.0017	0.0317	0.0514	0.0129	0.049	-0.0289	-0.0344
NC1(C(=O)N[C@@H](CCO)c2ccc(Cl)cc2)CCN(c2ncnc3[nH]ccc23)CC1 [Capivasertib] + CC(C)n1c(=O)n(C)c2cnc3cc(F)c(-c4ccc(OCCCN5CCCCC5)nc4)cc3c21 [AZD1390] (first compound max 10 µM, 7x7, partner max 0.3 µM)	-0.0904	-0.0638	-0.0537	-0.0849	-0.0323	-0.062	-0.0793	-0.0905	-0.0676	-0.0645	-0.116	-0.0484	-0.0965	-0.0275	-0.0661	-0.045	-0.04	-0.11	-0.064	-0.0228
NC1(C(=O)N[C@@H](CCO)c2ccc(Cl)cc2)CCN(c2ncnc3[nH]ccc23)CC1 [Capivasertib] + CCN(CCO)CCCOc1ccc2c(Nc3cc(CC(=O)Nc4cccc(F)c4)[nH]n3)ncnc2c1 [AZD2811] (first compound max 10 µM, 7x7, partner max 1 µM)	-0.0464	-0.0124	-0.0085	-0.0524	0.0121	-0.0053	-0.0428	-0.0073	-0.0838	-0.0265	-0.0351	-0.012	-0.0079	0.0165	0.0137	-0.0055	-0.0332	0.0943	-0.0435	0.002
NC1(C(=O)N[C@@H](CCO)c2ccc(Cl)cc2)CCN(c2ncnc3[nH]ccc23)CC1 [Capivasertib] + COc1nnc2ccc(N3CCC(c4ccc(OCCN5CCN(C)C(=O)[C@H]5C)cc4)CC3)nn12 [AZD5153] (first compound max 10 µM, 7x7, partner max 1 µM)	0.0163	-0.0057	-0.0061	0.0027	-0.0096	0.0866	0.0472	0.0056	0.0221	-0.015	0.0114	0.0787	0.0178	0.0276	-0.0035	0.0014	-0.0536	-0.0413	-0.01	0.007
